Values of other authors, collected in patent publication US20060105068A1, “Dietary supplement formulations containing Hoodia gordonii” (priority 2003, published 2006).

How the values were obtained:
[1] = rats
[2] = United States; therapeutic range; aspirin and associated compounds
[3] = after fifteen weeks; 1200 calorie/day diet

O=C(O[C@@H]1Cc2c(O)cc(O)cc2O[C@@H]1c1cc(O)c(O)c(O)c1)c1cc(O)c(O)c(O)c1 [epigallocatechin gallate]
loss of body weight [1]: up to 21%
decrease in appetite ([1]; after seven days of injections): 60%

Naringinine [Naringinines]
effect on cytochrome P450 enzymes (cytochrome P450): inhibit

NC(Cc1cc(I)c(Oc2cc(I)c(O)c(I)c2)c(I)c1)C(=O)O (stereo not drawn) [throxine]
reduction in CYP450 (cytochrome P450; when throxine is increased): 60-80%

CC(=O)Oc1ccccc1C(=O)O [aspirin]
people who die each year [2]: 7,600

CC(=O)OC1CC[C@@]2(C)C(=CC(=O)[C@@H]3[C@@H]2CC[C@]2(C)C(=O)CC[C@@H]32)C1 (stereo partly drawn) [Formula 7-Keto, 3-acetyl-7-oxo-dehydroepiandrosterone]
body weight, body mass index (BMI), and waist and hip circumference versus placebo (8-week treatment period): statistically significant reductions
tolerability / adverse events (8-week treatment period): well tolerated and no serious adverse events were reported
effect on testosterone levels (human, in vivo): does not increase testosterone levels

CCN[C@@H](C)Cc1cccc(C(F)(F)F)c1 [dexfenfluramine]
weight lost [3]: 15.2+/−9.5 lbs
